Source: article PMC5971337, “Development of an Ultra-High Performance Liquid Chromatography Method for Simultaneous Determination of Six Active Compounds in Fructus aurantii and Rat Plasma and Its Application to a Comparative Pharmacokinetic Study in Rats Administered with Different Doses” (Journal of Analytical Methods in Chemistry, 2018)
Where two headings read alike, the source gives them in different places.

Tests used:
[1] = Pharmacokinetic study in rats after oral administration of FA decoction; assay type: in vivo, Sprague-Dawley rats; details: for detection in rat plasma: even after orally administering 30 g/kg FA decoction; for AUC(0-t) / Cmax / Tmax / MRT last / half-life: male, Sprague-Dawley, rat plasma; for AUC(0-t): last dose day 8, plasma treated with β-glucuronidase; for MRT last: read-out: MRT(0–t); for half-life: read-out: t 1/2z (converted); for AUC(0–t) elevation, 30 g/kg compared with the 15 g/kg group / C max elevation, 30 g/kg compared with the 15 g/kg group: rat, oral FA decoction
Method: 16 male Sprague-Dawley (SD) rats weighing 200 ± 20 g were from experimental animal center of Central South University and fostered in an environmentally controlled room (temperature: 22–26°C, humidity: 40–60%, and 12 h dark-light cycle) for 1 week before the experiment. All experimental procedures were implemented strictly according to the guidelines of the Animal Care and Use Committee, Central South University, China. This research was approved by the Animal Ethics Committee of Central South University. Rats were randomly divided into 2 groups (n=8): low-dose group (15 g/kg FA decoction) and high-dose group (30 g/kg FA decoction). The two groups were given by gavage twice a day for 7 days in succession. At the 7th day of medication, the rats were prohibited feeding for about 12 hours without restriction of water. On day 8, the rats were orally administered for the last time at 8 am, and then plasma samples (0.5 mL) were collected from the caudal vein at 5, 10, 20, 30, 60, 90, 240, 360, 480, and 600 min into heparinized vacuum tubes, followed by centrifugation at 3500 rpm (4°C) for 10 min. Then, the plasmas were obtained and immediately stored at −20°C until analysis. During the experiment, the rats were injected intraperitoneally with physiological saline for maintaining fluid balance.
(§1) Standard stock solutions were prepared by dissolving reference standards in methanol to yield concentrations of 198 µg/mL for meranzin hydrate, 128 µg/mL for naringenin, 273 µg/mL for hesperetin, and 4.56 µg/mL for SMZ. All solutions were stored at 4°C. QC samples were prepared at three concentration levels containing meranzin hydrate (6.5, 206, 3300 ng/mL), naringenin (13.9, 222, 3555 ng/mL), and hesperetin (3.7, 29.5, 236 ng/mL). Plasmas (100 µL) were spiked with β-glucuronidase (5 µL) and acetic acid buffer solution (10 µL), subsequently vortexed for 10 seconds, and incubated for 4 h at 37°C. Then, SMZ (50 µL) and methanol (135 µL) were added, ultrasound was done for 10 min, and centrifugation at 12000 rpm (4°C) for 10 min was performed. The supernatant (50 µL) was transferred, distilled water (50 µL) was added, then ultrasound and centrifugation again. At last, the supernatant of 5 µL was injected into UPLC.
The database was set up with the SPSS 17.0 software package from SPSS Inc., Chicago, Illinois (US). Differences between the two groups were analyzed by one-way analysis of variance. A two-tailed P value of <0.05 was considered statistically significant. The DAS 3.2.8 pharmacokinetic program (Chinese Pharmacological Society) was used to process pharmacokinetic parameters.
The validated method was applied to determine the plasma concentrations of meranzin hydrate, naringenin, and hesperetin in rats after oral administration of FA decoction at a dose of 15 g/kg and 30 g/kg body weight. The mean plasma concentration-time profiles of meranzin hydrate, naringenin, and hesperetin are shown in Figure 4, and the estimated pharmacokinetic parameters are illustrated in Table 5. According to DAS software, the optimal metabolism process of the 3 components in rats could be depicted as a two-compartment pharmacokinetic model.

[2] = Stability of the analytical solution of FA decoction at environmental temperature; assay type: physicochemical; details: FA decoction 1.7 g/mL
Method: The raw herb (200 g) was immersed in distilled water (1 : 8, w/v) for 0.5 h at room temperature and thereafter was boiled for 0.5 h. The filtrate was collected, and the residue was boiled again in distilled water (1 : 6, w/v) for 0.5 h. The filtrates were mixed together, filtered through a 0.45 µm porous filtration membrane, then farther concentrated in the rotary evaporator to a final concentration equivalent to 1.7 g/mL FA, and stored at −20°C until analyzed. In the experiment, FA decoction (100 µL) was precisely measured, 900 µL methanol was added, then ultrasound was done for 5 min, and it was centrifuged at 15000 rpm (4°C) for 10 min; the supernatant liquor (20 µL) was shifted to a 1.5 mL EP tube, methanol-water (780 µL) was added, and ultrasound was performed, and it was centrifuged at 15000 rpm (4°C) for 10 min again. Finally, 5 µL of the supernatant liquor was injected into the apparatus for detection.
The stability of the analytical solution at environmental temperature was studied by detecting sample solution at 0, 2, 4, 8, 12, and 24 h. The RSD values of peak areas were taken for assessment.

[3] = Stability of QC samples in rat plasma (short-term, freeze-thaw, long-term); assay type: in vitro ADME; details: for Short-term stability, Mean ± SD: room temperature for 4 h; for Freeze-thaw stability, Mean ± SD: three freeze (−20°C) and thaw cycles; for Long-term stability, Mean ± SD: −20°C for 20 days
Method: as §1
(5) Stability. QC plasma samples of each concentration at low, medium, and high levels were detected. The freeze and thaw stability were investigated after three freeze (−20°C) and thaw (room temperature) cycles on consecutive days. Long-term stability was studied by storing QC samples at −20°C for 20 days. Short-term stability was assessed by analyzing QC samples kept at room temperature for 4 h.

[4] = oral FA decoction 15 g/kg twice a day for 7 days, n=8
[5] = oral FA decoction 30 g/kg twice a day for 7 days, n=8
[6] = high level (spiked 3300.0 / 3555.0 / 236.0 ng/mL)
[7] = low level (spiked 6.5 / 13.9 / 3.7 ng/mL)
[8] = medium level (spiked 206.0 / 222.0 / 29.5 ng/mL)

detection in rat plasma [1] | Stability in FA decoction, Content ([2]; 0h) [mg/mL] | Stability in FA decoction, Content ([2]; 2h) [mg/mL] | Stability in FA decoction, Content ([2]; 4h) [mg/mL] | Stability in FA decoction, Content ([2]; 8h) [mg/mL] | Stability in FA decoction, Content ([2]; 12h) [mg/mL] | Stability in FA decoction, Content ([2]; 24h) [mg/mL] | AUC(0-t) [1, 4] [ng·h/mL] | Cmax ([1]; oral FA decoction 15 g/kg, n=8) [ng/mL] | Tmax ([1]; oral FA decoction 15 g/kg, n=8) [h] | MRT last ([1]; oral FA decoction 15 g/kg, n=8) [h] | half-life ([1]; oral FA decoction 15 g/kg, n=8) [h] | AUC(0-t) [1, 5] [ng·h/mL] | Cmax ([1]; oral FA decoction 30 g/kg, n=8) [ng/mL] | Tmax ([1]; oral FA decoction 30 g/kg, n=8) [h] | MRT last ([1]; oral FA decoction 30 g/kg, n=8) [h] | half-life ([1]; oral FA decoction 30 g/kg, n=8) [h] | AUC(0–t) elevation, 30 g/kg compared with the 15 g/kg group [1] [fold] | C max elevation, 30 g/kg compared with the 15 g/kg group [1] [fold] | Short-term stability, Mean ± SD [3, 6] [ng/mL] | Structure (SMILES) | further results
could not been detected | 14.33 | 14.28 | 13.98 | 14.40 | 14.11 | 14.08 |  |  |  |  |  |  |  |  |  |  |  |  |  | COc1ccc([C@@H]2CC(=O)c3c(O)cc(O[C@@H]4O[C@H](CO)[C@@H](O)[C@H](O)[C@H]4O[C@@H]4O[C@@H](C)[C@H](O)[C@@H](O)[C@H]4O)cc3O2)cc1O [neohesperidin] | 
could not been detected | 25.24 | 25.35 | 24.92 | 25.45 | 24.98 | 25.15 |  |  |  |  |  |  |  |  |  |  |  |  |  | C[C@@H]1O[C@@H](O[C@H]2[C@H](Oc3cc(O)c4c(c3)O[C@H](c3ccc(O)cc3)CC4=O)O[C@H](CO)[C@@H](O)[C@@H]2O)[C@H](O)[C@H](O)[C@H]1O [naringin] | 

Continued, compound first:

Structure (SMILES) | detection in rat plasma [1] | Stability in FA decoction, Content ([2]; 0h) [mg/mL] | Stability in FA decoction, Content ([2]; 2h) [mg/mL] | Stability in FA decoction, Content ([2]; 4h) [mg/mL] | Stability in FA decoction, Content ([2]; 8h) [mg/mL] | Stability in FA decoction, Content ([2]; 12h) [mg/mL] | Stability in FA decoction, Content ([2]; 24h) [mg/mL] | AUC(0-t) [1, 4] [ng·h/mL] | Cmax ([1]; oral FA decoction 15 g/kg, n=8) [ng/mL] | Tmax ([1]; oral FA decoction 15 g/kg, n=8) [h] | MRT last ([1]; oral FA decoction 15 g/kg, n=8) [h] | half-life ([1]; oral FA decoction 15 g/kg, n=8) [h] | AUC(0-t) [1, 5] [ng·h/mL] | Cmax ([1]; oral FA decoction 30 g/kg, n=8) [ng/mL] | Tmax ([1]; oral FA decoction 30 g/kg, n=8) [h] | MRT last ([1]; oral FA decoction 30 g/kg, n=8) [h] | half-life ([1]; oral FA decoction 30 g/kg, n=8) [h] | AUC(0–t) elevation, 30 g/kg compared with the 15 g/kg group [1] [fold] | C max elevation, 30 g/kg compared with the 15 g/kg group [1] [fold] | Short-term stability, Mean ± SD [3, 6] [ng/mL] | further results
COc1ccc([C@@H]2CC(=O)c3c(O)cc(O[C@@H]4O[C@H](CO[C@@H]5O[C@@H](C)[C@H](O)[C@@H](O)[C@H]5O)[C@@H](O)[C@H](O)[C@H]4O)cc3O2)cc1O [hesperidin] | could not been detected | 4.95 | 4.83 | 4.71 | 5.02 | 4.87 | 4.82 |  |  |  |  |  |  |  |  |  |  |  |  |  | 
COc1ccc2ccc(=O)oc2c1C[C@@H](O)C(C)(C)O [Meranzin hydrate, meranzin hydrate] |  | 0.34 | 0.36 | 0.33 | 0.34 | 0.35 | 0.34 | 1530 ± 252 | 505 ± 64.3 | 1 ± 0.27 | 2.77 ± 0.34 | 2.67 ± 0.81 | 7370 ± 887 | 1830 ± 221 | 1.25 ± 0.27 | 3.21 ± 0.22 | 2.23 ± 0.59 | 4.8 | 3.62 |  | 
COc1ccc([C@@H]2CC(=O)c3c(O)cc(O)cc3O2)cc1O [Hesperetin, hesperetin] |  | 0.19 | 0.19 | 0.18 | 0.18 | 0.19 | 0.18 | 508 ± 88 | 83.9 ± 14.2 | 1 ± 0.38 | 4.27 ± 0.27 | 8.05 ± 3.1 | 955 ± 227 | 174 ± 39 | 1.31 ± 0.26 | 4.15 ± 0.35 | 6.56 ± 3.35 | 1.88 | 2.08 | 234.18 ± 22.13 | Cmax ([1]; oral, 15 g/kg group): 83.9 ± 14.2 ng/mL; Cmax ([1]; oral, 30 g/kg group): 174 ± 39 ng/mL; Freeze-thaw stability, Mean ± SD [3, 6]: 235.03 ± 19.71 ng/mL; Long-term stability, Mean ± SD [3, 6]: 235.66 ± 14.53 ng/mL; Short-term stability, Mean ± SD [3, 7]: 3.63 ± 0.87 ng/mL; Freeze-thaw stability, Mean ± SD [3, 7]: 3.52 ± 0.43 ng/mL; Long-term stability, Mean ± SD [3, 7]: 3.67 ± 0.57 ng/mL; Short-term stability, Mean ± SD [3, 8]: 27.88 ± 3.50 ng/mL; Freeze-thaw stability, Mean ± SD [3, 8]: 28.35 ± 4.03 ng/mL; Long-term stability, Mean ± SD [3, 8]: 28.28 ± 1.65 ng/mL
O=C1C[C@@H](c2ccc(O)cc2)Oc2cc(O)cc(O)c21 [Naringenin, naringenin] |  | 0.27 | 0.26 | 0.26 | 0.26 | 0.26 | 0.25 | 3660 ± 861 | 694 ± 208 | 1.13 ± 0.35 | 4.06 ± 0.33 | 8.59 ± 9.25 | 11200 ± 1410 | 2580 ± 388 | 0.81 ± 0.26 | 3.89 ± 0.21 | 5.67 ± 2.9 | 3.05 | 3.72 | 3549.93 ± 455.39 | Freeze-thaw stability, Mean ± SD [3, 6]: 3552.68 ± 409.74 ng/mL; Long-term stability, Mean ± SD [3, 6]: 3550.10 ± 450.62 ng/mL; Short-term stability, Mean ± SD [3, 7]: 13.03 ± 2.28 ng/mL; Freeze-thaw stability, Mean ± SD [3, 7]: 13.44 ± 4.79 ng/mL; Long-term stability, Mean ± SD [3, 7]: 13.32 ± 5.05 ng/mL; Short-term stability, Mean ± SD [3, 8]: 217.05 ± 22.66 ng/mL; Freeze-thaw stability, Mean ± SD [3, 8]: 219.51 ± 35.50 ng/mL; Long-term stability, Mean ± SD [3, 8]: 220.06 ± 34.22 ng/mL
